Holding throughout (conditions): filed as activator
In experiment [1] the target is Carbonic anhydrase 13 (Homo sapiens) (UniProt Q8N1Q1). As to the kind of experiment: Activation of human carbonic anhydrase 13 by stopped flow assay.
For experiment [2], the target named is Carbonic anhydrase 4 (Homo sapiens) (UniProt P22748). Kind of experiment: Activation of human carbonic anhydrase 4 by stopped flow assay.
For experiment [3], the target named is Carbonic anhydrase 5A, mitochondrial (Homo sapiens) (UniProt P35218). Kind of experiment: Activation of human carbonic anhydrase 5A by stopped flow assay.
Experiment [4] deals with Carbonic anhydrase 7 (Homo sapiens) (UniProt P43166). As to the kind of experiment: Activation of human carbonic anhydrase 7 by stopped flow assay.
Experiment [5] concerns the target Carbonic anhydrase 14 (Homo sapiens) (UniProt Q9ULX7). Kind of experiment: Activation of human carbonic anhydrase 14 by stopped flow CO2 hydrase assay.
The target in experiment [6] is Carbonic anhydrase 2 (Homo sapiens) (UniProt P00918). Kind of experiment: Activation of human carbonic anhydrase 2 by stopped flow assay.

Each structure is given as a SMILES string.

Sequence of Carbonic anhydrase 13 (Homo sapiens) (Q8N1Q1 whole entry, looked up): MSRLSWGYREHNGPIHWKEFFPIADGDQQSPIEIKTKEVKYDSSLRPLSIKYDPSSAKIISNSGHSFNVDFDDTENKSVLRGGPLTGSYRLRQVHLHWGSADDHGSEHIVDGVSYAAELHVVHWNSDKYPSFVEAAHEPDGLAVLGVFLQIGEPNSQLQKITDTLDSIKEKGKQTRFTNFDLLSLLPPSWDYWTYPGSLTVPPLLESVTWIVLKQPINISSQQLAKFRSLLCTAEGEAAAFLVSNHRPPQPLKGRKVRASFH
Sequence of Carbonic anhydrase 7 (Homo sapiens) (P43166 whole entry): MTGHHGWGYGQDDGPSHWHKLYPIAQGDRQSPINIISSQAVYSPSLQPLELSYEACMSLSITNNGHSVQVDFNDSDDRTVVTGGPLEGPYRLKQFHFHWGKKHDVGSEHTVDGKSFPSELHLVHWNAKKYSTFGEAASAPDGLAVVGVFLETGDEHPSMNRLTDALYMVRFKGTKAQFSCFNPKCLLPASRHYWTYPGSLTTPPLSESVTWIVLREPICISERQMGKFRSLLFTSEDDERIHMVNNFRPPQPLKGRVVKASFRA
Sequence of Carbonic anhydrase 5A, mitochondrial (Homo sapiens) (P35218 whole entry): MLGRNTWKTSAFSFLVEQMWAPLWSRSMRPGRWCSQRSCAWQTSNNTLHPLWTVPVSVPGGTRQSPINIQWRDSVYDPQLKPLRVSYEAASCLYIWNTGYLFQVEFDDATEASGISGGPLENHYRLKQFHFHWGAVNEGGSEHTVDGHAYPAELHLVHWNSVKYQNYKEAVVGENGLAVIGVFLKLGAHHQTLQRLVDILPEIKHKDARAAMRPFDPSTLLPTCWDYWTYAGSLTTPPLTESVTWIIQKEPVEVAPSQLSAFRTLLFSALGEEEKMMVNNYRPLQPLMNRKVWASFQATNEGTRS
Sequence of Carbonic anhydrase 4 (Homo sapiens) (P22748 whole entry): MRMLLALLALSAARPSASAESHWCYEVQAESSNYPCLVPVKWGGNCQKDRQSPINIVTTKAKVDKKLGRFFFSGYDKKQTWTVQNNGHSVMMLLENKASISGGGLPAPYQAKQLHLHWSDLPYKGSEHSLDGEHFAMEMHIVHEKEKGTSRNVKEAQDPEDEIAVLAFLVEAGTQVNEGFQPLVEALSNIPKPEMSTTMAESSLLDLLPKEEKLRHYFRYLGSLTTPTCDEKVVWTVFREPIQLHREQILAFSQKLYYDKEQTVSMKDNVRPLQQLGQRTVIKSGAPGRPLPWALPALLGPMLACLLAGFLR
Sequence of Carbonic anhydrase 14 (Homo sapiens) (Q9ULX7 whole entry): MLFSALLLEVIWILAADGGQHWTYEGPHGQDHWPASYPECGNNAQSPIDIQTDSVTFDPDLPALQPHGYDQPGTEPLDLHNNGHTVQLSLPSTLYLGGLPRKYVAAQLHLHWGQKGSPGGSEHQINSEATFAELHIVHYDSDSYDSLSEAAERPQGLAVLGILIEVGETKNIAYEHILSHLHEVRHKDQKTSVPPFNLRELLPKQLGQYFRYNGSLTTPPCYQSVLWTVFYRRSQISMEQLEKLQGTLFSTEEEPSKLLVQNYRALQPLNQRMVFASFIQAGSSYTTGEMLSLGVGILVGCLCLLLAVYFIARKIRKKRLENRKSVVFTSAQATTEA

In the case of `N[C@H](Cc1c[nH]cn1)C(=O)O`, in experiment [1], the KA was 0.09 µM. Turning to `CNC[C@H](O)c1ccc(O)c(O)c1`, the KA in experiment [2] was determined as 45 µM; in experiment [3], 63 µM; in experiment [4], 60 µM; in experiment [5] it was 36 µM. As for `NCCc1c[nH]cn1`, the KA in experiment [1] came to 4.6 µM; in experiment [6], 12.5 µM. Compound `N[C@@H](Cc1c[nH]cn1)C(=O)O` had a KA in experiment [1] of 0.13 µM. In the case of `N[C@H](Cc1c[nH]c2ccccc12)C(=O)O`, the KA in experiment [1] turned out to be 0.81 µM.

Values taken from ChEMBL document CHEMBL5036350, “Binding site comparison for coumarin inhibitors and amine/amino acid activators of human carbonic anhydrases” (Eur J Med Chem, 2021).
